# Source: patent US6262084A, “Compounds that inhibit the binding of integrins to their receptors” (Texas Biotechnology Corporation, priority 1999, dated 2001)
# Biological target: T1, α4β1 integrin (Homo sapiens, UniProt P05556+P13612)
# T1 construct: Ramos cells fluorescently labeled with calcein; endogenous in cells; host or cells: Ramos cells
# Assay: Inhibition of adhesion of calcein-labeled Ramos cells to CS1 (fibronectin) peptide-conjugated ovalbumin
# Type: cell-based
# Conditions: Ramos, Table 1; compound at a concentration of 100 μM; read-out: % A (percent inhibition of cell adhesion)
# Procedure, shortened: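 Calcein-labelled Ramos cells (2.5×10^5/well) in TBS with 1 mM MgCl2, CaCl2 and MnCl2 adhered to CS1 peptide–ovalbumin coated at 5 μg/ml for 30 min at 37 °C, with or without compound. After washing, bound cells were lysed and read by fluorescence. IC50 is the dose giving 50% inhibition, and % inhibition was measured at 100 μM.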
# T1 sequence (P13612 34-1032): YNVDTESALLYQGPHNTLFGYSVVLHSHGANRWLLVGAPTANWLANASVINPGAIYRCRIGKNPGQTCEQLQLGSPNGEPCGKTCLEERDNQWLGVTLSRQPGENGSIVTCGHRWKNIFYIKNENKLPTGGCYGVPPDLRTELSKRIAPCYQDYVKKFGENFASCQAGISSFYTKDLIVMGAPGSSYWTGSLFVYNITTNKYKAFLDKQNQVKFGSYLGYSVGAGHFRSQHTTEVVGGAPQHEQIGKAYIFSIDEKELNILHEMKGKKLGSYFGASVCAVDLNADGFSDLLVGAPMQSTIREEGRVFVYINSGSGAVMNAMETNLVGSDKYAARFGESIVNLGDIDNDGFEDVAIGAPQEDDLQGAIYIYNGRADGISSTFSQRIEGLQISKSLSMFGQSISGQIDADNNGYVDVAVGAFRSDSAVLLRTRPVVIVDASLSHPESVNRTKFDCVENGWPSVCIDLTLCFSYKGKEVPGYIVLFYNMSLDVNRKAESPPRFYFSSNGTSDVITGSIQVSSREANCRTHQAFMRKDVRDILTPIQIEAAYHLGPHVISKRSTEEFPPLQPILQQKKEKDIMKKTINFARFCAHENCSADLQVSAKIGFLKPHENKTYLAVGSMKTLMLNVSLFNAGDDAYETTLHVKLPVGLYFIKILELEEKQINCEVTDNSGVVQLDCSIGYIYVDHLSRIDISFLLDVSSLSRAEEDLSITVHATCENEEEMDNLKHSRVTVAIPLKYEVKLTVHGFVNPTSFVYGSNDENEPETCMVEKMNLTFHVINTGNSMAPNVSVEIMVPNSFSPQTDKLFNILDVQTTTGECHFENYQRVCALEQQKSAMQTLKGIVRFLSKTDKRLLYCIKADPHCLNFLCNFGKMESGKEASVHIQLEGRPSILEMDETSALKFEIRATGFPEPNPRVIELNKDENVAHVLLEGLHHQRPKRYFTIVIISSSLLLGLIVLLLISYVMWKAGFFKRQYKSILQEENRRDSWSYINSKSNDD
# T1 sequence (P05556 21-798): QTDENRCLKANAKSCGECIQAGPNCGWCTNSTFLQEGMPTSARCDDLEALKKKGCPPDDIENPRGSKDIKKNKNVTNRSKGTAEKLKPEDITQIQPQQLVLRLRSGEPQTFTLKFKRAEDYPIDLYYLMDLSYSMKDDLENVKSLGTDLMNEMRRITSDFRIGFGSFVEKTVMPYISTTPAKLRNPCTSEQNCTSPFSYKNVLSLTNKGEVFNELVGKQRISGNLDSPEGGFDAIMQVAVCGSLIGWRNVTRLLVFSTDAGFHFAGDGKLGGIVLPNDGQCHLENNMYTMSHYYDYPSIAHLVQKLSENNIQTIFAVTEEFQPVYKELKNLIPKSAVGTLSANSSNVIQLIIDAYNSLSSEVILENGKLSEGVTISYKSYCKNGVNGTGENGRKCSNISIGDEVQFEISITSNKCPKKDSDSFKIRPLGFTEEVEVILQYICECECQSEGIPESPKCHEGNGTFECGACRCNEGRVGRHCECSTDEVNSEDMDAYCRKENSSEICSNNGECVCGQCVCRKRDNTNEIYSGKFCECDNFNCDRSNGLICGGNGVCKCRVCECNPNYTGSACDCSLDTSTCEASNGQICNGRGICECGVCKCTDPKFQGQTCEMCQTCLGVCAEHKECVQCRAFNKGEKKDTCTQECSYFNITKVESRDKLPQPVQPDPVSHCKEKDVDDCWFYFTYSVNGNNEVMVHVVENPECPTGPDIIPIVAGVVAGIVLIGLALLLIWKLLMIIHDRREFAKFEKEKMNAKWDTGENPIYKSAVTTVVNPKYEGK
row,inhibition at 100 µM [%],SMILES
1,99,"O=C(O)C[C@H](NC(=O)N[C@@H](CC(=O)O)c1ccc2c(c1)OCO2)c1ccc2c(c1)OCO2 [N,N'-bis[(1S)-1-(1,3-benzodioxol-5-yl)-2-carboxyethyl]urea]"

# Same assay, conditions: Table 1; dose required to give 50% inhibition; Ramos cell adhesion to CS1-ovalbumin, 30 minutes at 37° C
row,IC50 [nM],SMILES
1,7000,"O=C(O)C[C@H](NC(=O)N[C@@H](CC(=O)O)c1ccc2c(c1)OCO2)c1ccc2c(c1)OCO2 [N,N'-bis[(1S)-1-(1,3-benzodioxol-5-yl)-2-carboxyethyl]urea]"

# Same assay, conditions: Table 2; dose required to give 50% inhibition; Ramos cell adhesion to CS1-ovalbumin, 30 minutes at 37° C
row,SMILES,IC50 [nM]
1,"CCCC[C@H](NC(=O)N[C@@H](CC(=O)O)c1ccc2c(c1)OCO2)C(=O)NCc1cccs1 [Compound 34, (3S)-3-(1,3-benzodioxol-5-yl)-3-([((1S)-1-[(2-thienylmethyl)amino]carbonylpentyl)amino]carbonylamino)propanoic acid]",250
2,"CCCC[C@H](NC(=O)N[C@@H](CC(=O)O)c1ccc2c(c1)OCO2)C(=O)Nc1ccccc1C(C)=O [Compound 35, (3S)-3-(1,3-benzodioxol-5-yl)-3-([((1S)-1-[(2-acetylphenyl)amino]carbonylpentyl)amino]carbonylamino)propanoic acid]",350
3,"CCCC[C@H](NC(=O)N[C@@H](CC(=O)O)c1ccc2c(c1)OCO2)C(=O)Nc1ccc(C(C)=O)cc1 [Compound 36, 3-(3S)-3-(1,3-benzodioxol-5-yl)-3-([((1S)-1-[(4-acetylphenyl)amino]carbonylpentyl)amino]carbonylamino)propanoic acid]",1000
4,"CCCC[C@H](NC(=O)N[C@@H](CC(=O)O)c1ccc2c(c1)OCO2)C(=O)NCc1ccc(OCc2ccccc2C)c(OC)c1 [Compound 38, 3-(3S)-3-(1,3-benzodioxol-5-yl)-3-([((1S)-1-[(4-(2-methylbenzyloxy)-3-methoxybenzyl)amino]carbonylpentyl)amino]carbonylamino)propanoic acid]",20
5,"CCCC[C@H](NC(=O)N[C@@H](CC(=O)O)c1ccc2c(c1)OCO2)C(=O)NCc1ccc(NS(=O)(=O)c2cccs2)cc1 [Compound 42, 3(3S)-3-(1,3-benzodioxol-5-yl)-3-([((1S)-1-[(4-(2-thienylsulfonamido)benzyl)amino]carbonylpentyl)amino]carbonylamino)propanoic acid]",60

# Next, values leading:
row,IC50 [nM],SMILES
1,30,"CCCC[C@H](NC(=O)N[C@@H](CC(=O)O)c1ccc2c(c1)OCO2)C(=O)NCc1ccc(NCc2cccs2)cc1 [Compound 37, 3-(3S)-3-(1,3-benzodioxol-5-yl)-3-([((1S)-1-[(4-(2-thienylmethyl)aminobenzyl)amino]carbonylpentyl)amino]carbonylamino)propanoic acid]"
2,50,CCCC[C@H](NC(=O)N[C@@H](CC(=O)O)c1ccc2c(c1)OCO2)C(=O)NCc1ccc(NCc2ccccc2C)cc1 [Compound 39]
3,120,"CCCC[C@H](NC(=O)N[C@@H](CC(=O)O)c1ccc2c(c1)OCO2)C(=O)NCc1ccc(NCc2nccs2)cc1 [Compound 40, 3(3S)-3-(1,3-benzodioxol-5-yl)-3-([((1S)-1-[(4-(1,3-thiazol-2-ylmethyl)aminobenzyl)amino]carbonylpentyl)amino]carbonylamino)propanoic acid]"
4,100,"CCCC[C@H](NC(=O)N[C@@H](CC(=O)O)c1ccc2c(c1)OCO2)C(=O)NCc1ccc(NCc2ccc(C)s2)cc1 [Compound 41, 3(3S)-3-(1,3-benzodioxol-5-yl)-3-([((1S)-1-[(4-(5-methyl-2-thienylmethyl)aminobenzyl)amino]carbonylpentyl)amino]carbonylamino)propanoic acid]"
5,120,CCCC[C@H](NC(=O)N[C@@H](CC(=O)O)c1ccc2c(c1)OCO2)C(=O)NCc1ccc(NCc2cccc(C)n2)cc1 [Compound 43]
